Key:
[1] = test system: B-16 cells (mouse melanoma, ATCC CRL 6323); assay: Inhibition of melanin synthesis; assay type: cell-based; settings: 50 μg/ml, 3 days, vs solvent control
Protocol: Catechin, rasveratrol, isoflavone, kojic acid, ascorbic acid, and Moriradicis cortex extracts were used as positive controls.
The B-16 cells (mouse melanoma, ATCC CRL 6323) were maintained in the DMEM medium supplemented 4.5 g/E of glucose, 10% serum, and 1% antibiotic at 37° C. for 24 hours. After the cell was incubated with 0.05% trypsin containing 0.02% EDTA, the cell was plated and incubated for 48 hours. The cells were treated with 50 μg/ml of compositions 1 to 18, or positive controls and incubated at 37° C. for 3 days. The cells were then added with 1 me of lysis buffer (phosphate buffer solution, 0.02% EDTA, 0.05% trypsin) and centrifuged for 5 min After the cells were treated with 5% trichloro acetate (TCA), the farmed melanin was separated and dissolved in 1N NaOH. The absorbance was measured at 475 nm using spectrophotometer. Concentration of melanin was determined by the standard curve of synthetic melanin (SIGMA CO. USA). The cell treated with the same amount of solvent was used as a negative control. The inhibitory effects of each composition on melanin synthesis were determined by following Equation.
{1−(M/M0)}×100 [Equation]
M: amount of melanin of test group or positive controls
M0: amount of melanin of negative control

[2] = test system: elastase; assay: Inhibition of elastase; assay type: biochemical; settings: 50 μg/ml, 10 nM elastase, 25° C., 10 min
Protocol: Catechin, rasveratrol, isoflavone, lactokine were used for positive controls. […] The cell treated with the same amount of solvent was used as a negative control. The inhibitory effects of each sample on elastase were determined by following Equation. The results are described in Table 3. {1−(E/E0)}×100 [Equation] E: The absorbance of test group or positive control E0: The absorbance of negative control

[3] = test system: rat basophilic leukemia cell (RBL-2H3); assay: Inhibition on histamine release (DNP-BSA stimulated); assay type: cell-based; settings: 50 μg/ml, RBL-2H3 cells, vs negative control
Protocol: In order to assess the anti-inflammation and anti-allergic activities of the compositions in the present invention, the inhibitory effects of the compositions on histamine synthesis, which closely related with inflammation including allergy, were investigated. The inhibitory effects of the compositions on histamine synthesis were assessed using the rat basophilic leukemia cell (RBL-2H3) according to the Kawasaki's method. After the cell (1×10^5 cells/well) was cultured in RPMI 1640 medium supplemented with 2% FBS (fetal bovine serum) and rat anti-DNP (dinitrophenol) IgE at 37° C. for 120 min, the cell was washed with the HPEPS buffer to remove the residual IgE. The cells was incubated in either absence (negative control) or presence (test group) of the com[…]. for 10 min. The cell was then treated with DNP-BSA (Dinitrophenol-conjugated Bovine serum albumin), as a histamine release antigen, for 1 hour at 37° C. After the reaction was stopped by adding the HEPES buffer solution, the supernatant was collected and treated with 20 μl of the perchloric acid and centrifuged. The histamine release in the supernatant was measured using the HPLC. The % inhibitions on histamine release of test group were calculated by following Equation compared with negative control. […] H: histamine release of test group H0: histamine release of negative control

[4] = test system: TG (triacyl glycerol) synthesis; assay: Inhibition of TG synthesis in hamster auricles; assay type: in vivo
Protocol: The prevention and treatment effects of the compositions on the acne were assessed through the inhibition of TG (triacyl glycerol) synthesis and sebocyte proliferation in hamster model.
The inhibitory effects of the composition 6 and 14 on TG synthesis were assessed as compared with catechin (positive control group). 5 week-old male hamster was divided into three groups (negative control group, test group, positive control group) and housed 10 animals to a cage after the acclimatization for 2 weeks. Animal rooms were maintained at 25±1° C. and 55% of humidity with a 12-hr light/dark cycle. The animals were freely accessed to diet and water throughout the study. The auricles of hamster were topically treated once a day for 14 days with 200 μl of 10% of the composition 6, 14 or catechin. The solvent for topical application was composed of a mixture of ethanol and glycerol (95:5, v/v). The animals in negative control group were treated with the same volume of vehicle. The auricles were separated from the body and the sebum generated on the skin surface was extracted with acetone. The amount of TG in skin surface was calculated from the sebum extracts. Sebocyte were suspended into solution from the auricle tissues using sonicator, and then amount of intercellar TG was determined by automatic thin-layer chromatography using triolate as a standard. The relative TG concentrations of each sample were calculated from comparison with negative control.

[5] = test system: Hamster sebocyte; assay: Suppression of sebocyte proliferation ([3H] thymidine); assay type: cell-based; settings: for % of untreated cell / cell number (×10^3 d.p.m/well): 12 days; for cell number (×10^3 d.p.m/well): control 2.90 ± 0.20
Protocol: Hamster sebocyte were established from sebaceous glands of auricles of the 5 week-old hamsters according to Sato's method. Sebocytes (2.35×10^4 cells/plate) were cultured in DMEM/F12 medium supplemented with 2% FBS and 2% human serum for 24 hours. The cells were treated with the composition 6 and 14 in different concentrations one time per 3 days for 12 days. The [^3H] thymidine (1 kBq/well) (Amersham Bioscience) was added 3 hours before the final treatment. The amount of [^3H] thymidine combined with DNA was measured by using liquid scintillation counter. The cell proliferation activity was determined as compared with negative control.

[6] = test system: pro-inflammatory cytokines (IL-1α, IL-1β, IL-6, IL-8, and TNF-α); assay: Suppression of inflammatory gene expression induced by UV exposure in NHEK cells; assay type: cell-based, human; settings: 50 μg/ml, UVB 40 mJ, compared with positive control (UVB only), FIG. 3
Protocol: The anti-inflammation effects of the compositions were investigated by measuring the UVB-induced generation of pro-inflammatory cytokines (IL-1α, IL-1β, IL-6, IL-8, and TNF-α) in the epidermis.
The normal human epidermal keratinocytes (NHEK cell line) were incubated in the keratinocyte-SFM medium (serum-free medium) at 95% humidity in 5% carbon dioxide at 37° C. The cells were placed (3×10^4 cells/wall) into the 96-well plate and allowed to adhere 24 hours. The cells were treated with the composition 6, 16 or green tea extract in the concentration of 50 μg/ml. DMSO (dimethyl sulfoxide) was used as a solvent and the final concentration of DMSO was 0.1% (v/v). After incubation for 24 hours, the cells were was irradiated with UVB (40 mJ/cd). The cultured supernatants were collected 24 hour after UVB irradiation. The concentrations of pro-inflammatory cytokines (IL-1β, IL-6, IL-8, and TNF-α) were deteHnined from Human Inflammation Cytometric Bead Assay kit (Becton Deckinson, San Diego, USA). The concentration of IL-1α was measured using the enzyme immunoassay. The results are described in FIG. 2. The negative control indicates the cells which were neither irradiated nor treated with the compositions, and the positive control means the cells which were only irradiated with UVB without treatment of the compositions.

[7] = test system: NB1RGB cells (normal human fibroblast cell line from skin); settings: concentration that reaches 50% of apoptosis, 1 hour incubation
Protocol: (§1) The cytotoxicity of the compositions to the normal skin cell was assessed using the NHEK (F) cells (normal human epidermal keratinocytes of neonatal foreskin cell) and the NB1RGB cells (normal human fibroblast cell line from skin). NHEK (F) and NB1RGB cells, which are main components of the epidermis and Bemis in normal human skin, produce collagen and elastin and provide skin elasticity.
(§2) The mixture of PMS/WST-1 (1-methoxy-5-methylphenazinium methyl sulfate/2-(4-indophenyl)-3-(4-nitrophenyl)-5-(2,4-disulfo phenyl)-2H-tetrazolium monosodium salt) was added to the medium and incubated for 1 hour to generate soluble formosan, and then the absorbance was measured at 415 nm using spectrophotometer. The cells treated with solvent without the compositions were used as a negative control, whereas the cells treated with 1% (w/v) SDS solution were used as a positive control (100% cell apoptosis).
(§3) apoptosis(%)=(A0−A/A0−As)×100 [Equation]
(§4) A0=absorbance of the cell that was not treated with the composition
(§5) A=absorbance of the cell that was treated with the composition […]
(§6) As=absorbance of the cell that was treated with 1% (w/v) SDS (positive control group)

[8] = test system: NHEK (F) cells (normal human epidermal keratinocytes of neonatal foreskin cell); settings: concentration that reaches 50% of apoptosis, 1 hour incubation
Protocol: as §1, §2, §3, §4, §5, §6

[9] = hamster auricles, 200 μl of 10% solution topically once a day for 14 days, control group = 100
[10] = sample concentration 10 (unit not given)
[11] = sample concentration 20 (unit not given)
[12] = sample concentration 40 (unit not given)

Oc1cc(O)cc(Oc2c(O)cc(O)c3c2Oc2c(cc(O)c(-c4c(O)cc5c(c4O)Oc4c(Oc6cc(O)cc(O)c6)c(O)cc(O)c4O5)c2O)O3)c1 [composition 6]
Inhibitory effect on melanin synthesis (%) [1]: 89.8%
Inhibition of Elastase (%) [2]: 89.9%
% Inhibition on histamine release [3]: 75.9%
sebum production on skin surface and in the skin cell ([4]; compared with negative control): significantly decrease sebum production
Relative TG concentration in the skin cell (%) [4, 9]: 54.9%
Relative TG concentration in the skin surface (%) [4, 9]: 66.2%
sebocyte proliferation ([5]; Table 9, in words): significantly suppressed sebocyte proliferation
% of untreated cell [5, 10]: 78.4%
cell number (×10^3 d.p.m/well) [5, 10]: 2.26 ± 0.67 ×10^3 d.p.m/well
% of untreated cell [5, 11]: 30.2%
cell number (×10^3 d.p.m/well) [5, 11]: 0.87 ± 0.07 ×10^3 d.p.m/well
% of untreated cell [5, 12]: 10.4%
cell number (×10^3 d.p.m/well) [5, 12]: 0.30 ± 0.05 ×10^3 d.p.m/well
levels of pro-inflammatory cytokines [6]: significantly decrease levels of pro-inflammatory cytokines
LD50 (μM) NB1RGB cell [7]: 97.3 µM
LD50 (μM) NHEK (F) cell [8]: 105.4 µM
